In brackets after ≈: the same amount, converted by molar mass. Where two headings read alike, the source gives them in different places.
Experiments:
[1] = tested on: Mycobacterium avium; assay: MIC, Mycobacterium avium; assay type: cell-based; details: Mycobacterium avium; N = 30
[2] = tested on: Staphylococcus aureus; assay: MIC, Staphylococcus aureus; assay type: cell-based; details: N = 201
[3] = tested on: Listeria monocytogenes; assay: MIC, Listeria monocytogenes; assay type: cell-based; details: N = 10
[4] = tested on: MMP9; assay: MMP9 activity in PMA-stimulated U937 cells (gelatin zymography); assay type: cell-based, human
Protocol: EXAMPLE. […] Cells. The human monocytic cell line U937 was obtained from the American Type Culture Collection (ATCC, Rockville, Md.). PBMCs from COPD patients were obtained from Brompton hospital and separated by AccuSPIN (Sigma-Aldrich). […] U937 cells were differentiated into adherent macrophage-like morphology by exposure to PMA (50 ng/ml) for 48 h in complete growth medium. Cell viability was assessed microscopically by trypan blue staining. Cell toxicity was determined by MTT assay as needed. This study was approved by the ethics committee of the Royal Brompton Hospitals, and all subjects gave written informed consent. Zymography. MMP9 enzyme activity was measured by gelatin zymography. […] After electrophoresis, gels were incubated and rinsed with Novex® zymogram renaturing buffer (Invitrogen) for 30 min at room temperature. The gels were then rinsed in Novex® zymogram developing buffer (Invitrogen) for 30 min at room temperature prior to overnight incubation in the developing buffer at 37° C. After incubation, the gels were stained using a Colloidal Blue Staining Kit (Invitrogen) to visualize the zymogen bands. Statistical analysis. The results were expressed as the mean±SEM. Comparisons of data in two groups were performed using the Student's t test or the Wilcoxon signed rank test. Multiple comparisons were made by one-way ANOVA with post hoc test (Dunnett's) as appropriate. The difference was considered significant at p<0.05.

[5] = tested on: MSRA; assay: MICs of solithromycin and comparator drugs, MSRA (30 species); assay type: cell-based
From the text: (§1) EXAMPLE. The formulations described herein show overall higher potency against ocular pathogens than commercial standards.
(§2) MICs (μg/ml) of Solithromycin and Comparator Drugs against Bacterial Species

[6] = tested on: CA-MRSA; assay: MIC, CA-MRSA; assay type: cell-based, Staphylococcus aureus; details: N = 30
[7] = tested on: Streptococcus pneumoniae; assay: MIC, Streptococcus pneumoniae (150 strains); assay type: cell-based
[8] = tested on: Mycoplasma hominis; assay: MIC, Mycoplasma hominis; assay type: cell-based; details: N = 13
[9] = tested on: TNFα; assay: TNFα production in LPS-stimulated PMA-differentiated U937 cells (ELISA); assay type: cell-based, human; details: concentration not given
Protocol: (§3) EXAMPLE. […] Cells. The human monocytic cell line U937 was obtained from the American Type Culture Collection (ATCC, Rockville, Md.). PBMCs from COPD patients were obtained from Brompton hospital and separated by AccuSPIN (Sigma-Aldrich). […] U937 cells were differentiated into adherent macrophage-like morphology by exposure to PMA (50 ng/ml) for 48 h in complete growth medium. Cell viability was assessed microscopically by trypan blue staining. Cell toxicity was determined by MTT assay as needed. This study was approved by the ethics committee of the Royal Brompton Hospitals, and all subjects gave written informed consent. Cytokine ELISA. TNFα and IL-8 concentrations in the supernatant of cell cultures were determined by sandwich ELISA according to the manufacturer's instructions (R&D Systems Europe, Abingdon, UK). Statistical analysis. The results were expressed as the mean±SEM. Comparisons of data in two groups were performed using the Student's t test or the Wilcoxon signed rank test. Multiple comparisons were made by one-way ANOVA with post hoc test (Dunnett's) as appropriate. The difference was considered significant at p<0.05. […] Anti-inflammatory effects of solithromycin in U937 cells.

[10] = tested on: S. epidermidis; assay: MICs of solithromycin and comparator drugs, S. epidermidis (30 species); assay type: cell-based
From the text: as §1, §2

[11] = tested on: MSSA; assay: MICs of solithromycin and comparator drugs, MSSA (31 species); assay type: cell-based
From the text: as §1, §2

[12] = tested on: P. Acnes; assay: MICs of solithromycin and comparator drugs against P. acnes; assay type: cell-based; details: Cutibacterium acnes; 51 species
From the text: EXAMPLE. The formulations described herein show overall higher potency against ocular pathogens than commercial standards. MICs (μg/ml) of Solithromycin and Comparator Drugs against P. Acnes (51 Species)

[13] = tested on: H. influenzae; assay: MICs of solithromycin and comparator drugs, H. influenzae (30 species); assay type: cell-based
From the text: as §1, §2

[14] = tested on: CXCL8; assay: CXCL8 (IL-8) production in LPS-stimulated PMA-differentiated U937 cells (ELISA); assay type: cell-based, human; details: concentration not given
Protocol: as §3

[15] = tested on: Legionella pneumophila; assay: microbe, parasite or virus in culture; assay type: cell-based
[16] = tested on: Streptococcus pyogenes; assay: MIC, Streptococcus pyogenes; assay type: cell-based; details: Streptococcus pyogenes
[17] = tested on: Ureaplasma urealyticum; assay: MIC, Ureaplasma urealyticum; assay type: cell-based; details: N = 10
[18] = tested on: Viridans group streptococci; assay: MIC, Viridans group streptococci; assay type: cell-based; details: N = 51
[19] = tested on: Haemophilus influenzae; assay: MIC, Haemophilus influenzae (100 strains); assay type: cell-based
[20] = tested on: Neisseria gonorrhoeae; assay: MIC, Neisseria gonorrhoeae; assay type: cell-based; details: N = 34
[21] = tested on: Corynebacterium spp.; assay: MIC, Corynebacterium spp.; assay type: cell-based; details: Corynebacterium; N = 10
[22] = tested on: Peptostreptococcus spp.; assay: MIC, Peptostreptococcus spp.; assay type: cell-based; details: Peptostreptococcus; N = 10
[23] = tested on: Moraxella catarrhalis; assay: MIC, Moraxella catarrhalis; assay type: cell-based; details: N = 21
[24] = tested on: S. pneumoniae; assay: MICs of solithromycin and comparator drugs, S. pneumoniae (30 species); assay type: cell-based
From the text: as §1, §2

[25] = tested on: Mycoplasma pneumoniae; assay: MIC, Mycoplasma pneumoniae (38 strains); assay type: cell-based
[26] = tested on: Haemophilus parainfluenzae; assay: MIC, Haemophilus parainfluenzae; assay type: cell-based; details: N = 11

Compound: CC[C@H]1OC(=O)[C@H](C)[C@@H](O[C@H]2C[C@@](C)(OC)[C@@H](O)[C@H](C)O2)[C@H](C)[C@@H](O[C@@H]2O[C@H](C)C[C@H](N(C)C)[C@H]2O)[C@](C)(O)C[C@@H](C)CN(C)[C@H](C)[C@@H](O)[C@]1(C)O [Azithromycin, azithromycin]
- MIC50 [1]: 16 µg/mL (≈ 21.4 µM)
- MIC90 [1]: 16 µg/mL (≈ 21.4 µM)
- MIC50 [2]: > 16 µg/mL
- MIC90 [2]: > 16 µg/mL
- MIC50 ([3]; Listeria monocytogenes): 0.5 µg/mL (≈ 0.668 µM)
- MIC90 ([3]; Listeria monocytogenes): 1 µg/mL (≈ 1.34 µM)
- MIC Range [3]: 0.5-1^ μg/mL
- inhibitory effect on MMP9 activity, lower than solithromycin [4]: 10 fold
- MIC50 [5]: > 32 µg/mL
- MIC90 [5]: > 32 µg/mL
- I (intermediate susceptibility) ([5]; 30 species): 0%
- NS (not susceptible) ([5]; 30 species): 90%
- S (susceptible) ([5]; 30 species): 10%
- MIC Range [6]: >16 µg/mL
- MIC50 ([6]; Staphylococcus aureus, MRSA): > 16 µg/mL
- MIC90 ([6]; Staphylococcus aureus, MRSA): > 16 µg/mL
- MIC90 ([7]; N = 150): >16 µg/mL
- MIC90 ([7]; Streptococcus pneumoniae, 150 strains, read-out: MIC90): > 16 µg/mL
- MIC50 ([7]; Streptococcus pneumoniae, N = 150): > 16 µg/mL
- MIC Range [8]: 0.5-4^ μg/mL
- effect on TNFα production [9]: did not inhibit
- I (intermediate susceptibility) [10]: 0%
- NS (not susceptible) [10]: 63%
- S (susceptible) [10]: 37%
- MIC50 ([10]; Staphylococcus epidermidis): > 32 µg/mL
- MIC90 ([10]; Staphylococcus epidermidis): > 32 µg/mL
- I (intermediate susceptibility) [11]: 0%
- NS (not susceptible) [11]: 39%
- S (susceptible) [11]: 61%
- MIC50 ([11]; Staphylococcus aureus, MSSA): 2 µg/mL (≈ 2.67 µM)
- MIC90 ([11]; Staphylococcus aureus, MSSA): > 32 µg/mL
- MIC50 [12]: 0.06 µg/mL (≈ 0.0801 µM)
- MIC90 [12]: 4 µg/mL (≈ 5.34 µM)
- I (intermediate susceptibility) [13]: 0%
- MIC Range [13]: 1 to 4 µg/mL
- NS (not susceptible) [13]: 0%
- S (susceptible) [13]: 100%
- MIC50 ([13]; Haemophilus influenzae): 2 µg/mL (≈ 2.67 µM)
- MIC90 ([13]; Haemophilus influenzae): 2 µg/mL (≈ 2.67 µM)
- effect on IL-8 production [14]: did not inhibit
- MIC50 ([15]; Legionella pneumophila): 1 µg/mL (≈ 1.34 µM)
- MIC90 ([15]; Legionella pneumophila): 2 µg/mL (≈ 2.67 µM)
- MIC90 ([15]; N = 30): 2 µg/mL (≈ 2.67 µM)
- MIC50 [16]: > 16 µg/mL
- MIC90 ([16]; 100 strains): > 16 µg/mL
- MIC90 ([16]; N = 407 (CEM-101), N = 100 (azithromycin)): > 16 µg/mL
- MIC Range [17]: 0.5-4^ μg/mL
- MIC50 ([17]; Ureaplasma urealyticum): 2 µg/mL (≈ 2.67 µM)
- MIC90 ([17]; Ureaplasma urealyticum): 4 µg/mL (≈ 5.34 µM)
- MIC50 [18]: 0.12 µg/mL (≈ 0.16 µM)
- MIC90 [18]: 4 µg/mL (≈ 5.34 µM)
- MIC Range [18]: ≤0.008-16 ^ μg/mL
- MIC90 ([19]; Haemophilus influenzae, 100 strains, read-out: MIC90): 2 µg/mL (≈ 2.67 µM)
- MIC50 ([19]; Haemophilus influenzae, N = 100): 2 µg/mL (≈ 2.67 µM)
- MIC90 ([19]; N = 100): 2 µg/mL (≈ 2.67 µM)
- MIC Range ([19]; N = 100): 0.25 to 4 µg/mL
- MIC Range [20]: 0.06 to 2 µg/mL
- MIC50 ([20]; Neisseria gonorrhoeae): 0.25 µg/mL (≈ 0.334 µM)
- MIC90 ([20]; Neisseria gonorrhoeae): 0.5 µg/mL (≈ 0.668 µM)
- MIC50 [21]: > 16 µg/mL
- MIC90 [21]: > 16 µg/mL
- MIC50 [22]: 8 µg/mL (≈ 10.7 µM)
- MIC90 [22]: > 64 µg/mL
- MIC50 ([23]; Moraxella catarrhalis): 0.03 µg/mL (≈ 0.0401 µM)
- MIC90 ([23]; Moraxella catarrhalis): 0.06 µg/mL (≈ 0.0801 µM)
- MIC Range [23]: 0.03 to 0.5 µg/mL
- I (intermediate susceptibility) [24]: 3%
- NS (not susceptible) [24]: 23%
- S (susceptible) [24]: 73%
- MIC50 ([24]; Streptococcus pneumoniae): 0.06 µg/mL (≈ 0.0801 µM)
- MIC90 ([24]; Streptococcus pneumoniae): 8 µg/mL (≈ 10.7 µM)
- MIC90 ([25]; Mycoplasma, 38 strains, read-out: MIC90): 0.0005 µg/mL (≈ 0.000668 µM)
- MIC50 ([25]; Mycoplasma, N = 38): 0.00025 µg/mL (≈ 0.000334 µM)
- MIC90 ([25]; N = 38): 0.0005 µg/mL (≈ 0.000668 µM)
- MIC50 ([26]; Haemophilus parainfluenzae): 1 µg/mL (≈ 1.34 µM)
- MIC90 ([26]; Haemophilus parainfluenzae): 2 µg/mL (≈ 2.67 µM)
- MIC Range [26]: 0.5-2^ μg/mL

From patent US20200009173A1, “TRIAZOLE-CONTAINING MACROLIDES AND OPHTHALMIC USES THEREFOR” (Tetard, Inc., priority 2017, published 2020)
